# Test results as given in US6632806B1, “Neurologically-active compounds” (The University of Sydney, priority 1997, dated 2003).
# “And” between values parts separate entries of the source, which are not always exact repeats. Equal entries are not always repeated. Where two headings read alike, the source gives them in different places. Marks after values point to notes of the source that are not given here.
# Columns and labels:
# GABAC receptors = settings: Woodward et al, 1993, cited from earlier work; for Kb: read-out: KB (antagonist); for Kd: Johnston, 1996b, read-out: KD (agonist)
# GABAA [1] = test system: T1, GABAA; settings: Na-independent [3H]GABA binding (Johnston et al, 1978); read-out: GABAA receptor affinity, IC50; cited from earlier work
# T1 construct: Activity at GABAA; other: Woodward et al, 1993; GABAA Kb; other: Ragozzino et al (1996); other: PMPA; source not given, column fo
# [2] = biological target: human r1 receptors (GABAC receptors) (Homo sapiens, UniProt P24046); test: Two-electrode voltage clamp recording of human r1 GABAC receptors expressed in Xenopus oocytes; settings: for EC50: r1 receptors in Xenopus oocytes, clamped at −60 mV; for IC50: IC50 (concentration that inhibits 50% of the response produced by 1 μM GABA), 1 μM GABA; for Mode of antagonism: Schild analysis; for Effect as agonist or antagonist at GABAC receptors: screened at 100 μM; for Activation of the receptor by compound alone / Effect on GABA response when co-applied with GABA (1 μM): FIG. 1
# human r1 receptors (GABAC receptors), sequence (P24046 22-479): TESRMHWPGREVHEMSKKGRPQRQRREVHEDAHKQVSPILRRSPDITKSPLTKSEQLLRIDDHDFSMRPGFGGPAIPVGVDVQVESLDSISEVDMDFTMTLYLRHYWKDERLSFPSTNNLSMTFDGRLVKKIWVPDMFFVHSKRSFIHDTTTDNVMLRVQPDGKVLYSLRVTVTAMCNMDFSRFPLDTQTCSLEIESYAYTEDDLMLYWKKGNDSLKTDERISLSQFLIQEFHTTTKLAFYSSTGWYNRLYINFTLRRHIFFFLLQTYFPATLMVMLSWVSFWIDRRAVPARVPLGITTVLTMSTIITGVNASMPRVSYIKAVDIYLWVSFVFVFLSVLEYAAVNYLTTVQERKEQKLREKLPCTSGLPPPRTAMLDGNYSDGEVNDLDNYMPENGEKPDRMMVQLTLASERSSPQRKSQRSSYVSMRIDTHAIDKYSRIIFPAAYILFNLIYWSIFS
# Procedure: The plasmid was linearized with XbaI and cRNA made using the “Message Machine” kit from Ambion Inc. (Austin, Tex., USA). 50 ng of cRNA was injected into defolliculated Stage V Xenopus oocytes. Two to seven days later, receptor activity was measured by two-electrode voltage clamp recording, using a Geneclamp 500 amplifier (Axon Instruments Inc., Foster City, Calif., USA) and a MacLab 2e recorder (ADInstruments, Sydney, NSW, Australia). […] For receptor activation measurements, the indicated concentrations of agonist and antagonist were added to ND96.
# GABAA [3] = test system: T1, GABAA; settings: [3H]muscimol binding (Froestl et al, 1995a; 1995b), cited from earlier work; for IC50: read-out: GABAA receptor affinity, IC50
# GABAA [4] = settings: cited from earlier work
# [5] = test system: NMDA, benzodiazepine, quisqualate, kainate, muscarinic cholinergic, adrenergic, serotoninergic and histaminergic receptors; settings: 1 mM; cited from earlier work
# GABAB [6] = biological target: T2, GABAB (Rattus norvegicus, UniProt Q9Z0U4); parameters: from tissue; host or cells: rat cortical membranes / neocortical slices; values largely from the literature; settings: [3H]CGP27492 binding (Froestl et al; Bittiger et al; Olpe et al); read-out: GABAB receptor affinity, IC50; cited from earlier work
# Target sequence in this assay (Q9Z0U4 17-960 limits assumed): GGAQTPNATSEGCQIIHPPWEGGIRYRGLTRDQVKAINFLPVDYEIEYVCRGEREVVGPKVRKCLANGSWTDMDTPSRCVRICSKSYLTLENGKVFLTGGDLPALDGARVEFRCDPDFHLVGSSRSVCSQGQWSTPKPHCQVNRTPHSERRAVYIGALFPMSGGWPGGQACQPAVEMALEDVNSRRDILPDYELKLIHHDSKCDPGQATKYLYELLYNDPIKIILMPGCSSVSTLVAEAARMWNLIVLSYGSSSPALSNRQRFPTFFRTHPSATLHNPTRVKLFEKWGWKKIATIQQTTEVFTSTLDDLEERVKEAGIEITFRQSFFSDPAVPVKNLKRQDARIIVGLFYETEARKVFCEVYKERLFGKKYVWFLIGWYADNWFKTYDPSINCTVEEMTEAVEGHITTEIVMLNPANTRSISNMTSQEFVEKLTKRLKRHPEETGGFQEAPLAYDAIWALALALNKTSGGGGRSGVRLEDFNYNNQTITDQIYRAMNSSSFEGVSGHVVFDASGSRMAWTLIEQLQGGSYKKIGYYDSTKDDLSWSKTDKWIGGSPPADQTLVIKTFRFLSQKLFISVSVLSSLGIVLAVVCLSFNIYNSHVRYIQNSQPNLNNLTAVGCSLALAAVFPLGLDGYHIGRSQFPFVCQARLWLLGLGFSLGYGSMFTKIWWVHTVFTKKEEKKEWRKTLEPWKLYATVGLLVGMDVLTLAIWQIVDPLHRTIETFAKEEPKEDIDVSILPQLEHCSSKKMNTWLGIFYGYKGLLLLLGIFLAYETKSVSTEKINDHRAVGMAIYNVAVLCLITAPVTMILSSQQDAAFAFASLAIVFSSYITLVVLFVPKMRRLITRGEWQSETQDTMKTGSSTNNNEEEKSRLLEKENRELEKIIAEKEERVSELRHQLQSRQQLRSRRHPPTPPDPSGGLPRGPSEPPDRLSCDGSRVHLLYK
# Target sequence in this assay (O88871 41-940 partner): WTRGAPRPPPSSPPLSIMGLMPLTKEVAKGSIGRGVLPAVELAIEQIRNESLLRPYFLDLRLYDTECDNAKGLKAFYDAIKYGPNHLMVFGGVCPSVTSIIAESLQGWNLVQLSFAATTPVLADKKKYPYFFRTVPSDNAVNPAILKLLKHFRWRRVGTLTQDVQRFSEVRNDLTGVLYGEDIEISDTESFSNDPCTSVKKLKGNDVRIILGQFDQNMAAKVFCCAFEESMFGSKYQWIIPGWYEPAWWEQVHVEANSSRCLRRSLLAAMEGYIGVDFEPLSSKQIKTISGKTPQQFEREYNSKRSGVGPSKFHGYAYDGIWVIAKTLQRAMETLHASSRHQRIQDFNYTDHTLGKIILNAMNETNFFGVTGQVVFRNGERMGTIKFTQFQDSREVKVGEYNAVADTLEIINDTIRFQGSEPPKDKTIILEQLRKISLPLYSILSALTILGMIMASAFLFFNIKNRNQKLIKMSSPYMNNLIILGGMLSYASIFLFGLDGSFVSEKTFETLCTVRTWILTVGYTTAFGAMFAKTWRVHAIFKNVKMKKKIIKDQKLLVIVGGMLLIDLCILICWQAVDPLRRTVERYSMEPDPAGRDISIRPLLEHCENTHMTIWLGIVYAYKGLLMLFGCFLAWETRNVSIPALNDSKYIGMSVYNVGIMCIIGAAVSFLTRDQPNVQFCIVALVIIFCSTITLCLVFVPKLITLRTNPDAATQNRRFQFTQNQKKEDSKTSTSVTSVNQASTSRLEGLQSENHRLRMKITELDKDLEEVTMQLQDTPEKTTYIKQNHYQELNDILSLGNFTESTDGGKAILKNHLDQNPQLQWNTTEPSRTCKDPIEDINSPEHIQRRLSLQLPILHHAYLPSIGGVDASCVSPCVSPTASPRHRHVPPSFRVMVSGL
# GABAC (human r1) = biological target: T3, GABAC (human r1) (Homo sapiens, UniProt P24046); settings: cited from earlier work
# T3 construct: host or cells: Xenopus oocytes expressing human r1 mRNA
# T3 sequence (P24046 22-479): as the sequence (P24046 22-479) above
# GABAA [7] = biological target: T1, GABAA; test: Inhibition of [3H]muscimol binding using rat cortical membranes; settings: PMPA; source not given, column footnote is [3H]muscimol binding; read-out: GABAA receptor affinity, IC50
# GABAB [8] = biological target: T2, GABAB; test: Frequency of spontaneous discharges in neocortical slices, grease-gap recording; parameters: from tissue; host or cells: rat cortical membranes / neocortical slices; values largely from the literature; settings: read-out: GABAB receptor affinity
# Target sequence in this assay (Q9Z0U4 17-960 limits assumed): as the sequence (Q9Z0U4 17-960 limits assumed) above
# Target sequence in this assay (O88871 41-940 partner): as the sequence (O88871 41-940 partner) above
# human rho-2 receptors = human rho-2 receptors (Homo sapiens, UniProt P28476); test: Antagonist KB at human homo-oligomeric rho-2 GABAC receptors; type: cell-based; settings: for Kb: human rho-2
# human rho-2 receptors, sequence (P28476 21-465): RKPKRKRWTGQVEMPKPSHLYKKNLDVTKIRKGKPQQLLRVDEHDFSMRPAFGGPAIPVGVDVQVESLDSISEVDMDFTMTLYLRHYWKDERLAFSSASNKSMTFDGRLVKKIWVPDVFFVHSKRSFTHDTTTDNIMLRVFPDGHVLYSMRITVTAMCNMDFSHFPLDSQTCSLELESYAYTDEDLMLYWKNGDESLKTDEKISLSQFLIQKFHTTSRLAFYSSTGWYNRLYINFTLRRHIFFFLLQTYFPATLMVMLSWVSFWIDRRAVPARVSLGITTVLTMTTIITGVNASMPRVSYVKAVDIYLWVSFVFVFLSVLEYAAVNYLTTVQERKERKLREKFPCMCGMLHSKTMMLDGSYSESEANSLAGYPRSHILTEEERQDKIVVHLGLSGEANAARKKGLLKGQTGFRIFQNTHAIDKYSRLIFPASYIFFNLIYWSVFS
# male Swiss mice = test: Elevated plus-maze memory test; type: in vivo
# Procedure: In this assay mice are trained by placing them at the end of the open arm of the plus maze and allowing them to find the shelter of the closed arms. The time taken is measured as the ‘latency’. Immediately after the trial the mice are injected with the test drug or with a saline control. […]
# GABAB [9] = biological target: T2, GABAB; parameters: from tissue; host or cells: hippocampal slices (pyramidal neurons); settings: bicuculline 20 μM; Ragozzino et al (1996); cited from earlier work
# Target sequence in this assay (Q9Z0U4 20-960): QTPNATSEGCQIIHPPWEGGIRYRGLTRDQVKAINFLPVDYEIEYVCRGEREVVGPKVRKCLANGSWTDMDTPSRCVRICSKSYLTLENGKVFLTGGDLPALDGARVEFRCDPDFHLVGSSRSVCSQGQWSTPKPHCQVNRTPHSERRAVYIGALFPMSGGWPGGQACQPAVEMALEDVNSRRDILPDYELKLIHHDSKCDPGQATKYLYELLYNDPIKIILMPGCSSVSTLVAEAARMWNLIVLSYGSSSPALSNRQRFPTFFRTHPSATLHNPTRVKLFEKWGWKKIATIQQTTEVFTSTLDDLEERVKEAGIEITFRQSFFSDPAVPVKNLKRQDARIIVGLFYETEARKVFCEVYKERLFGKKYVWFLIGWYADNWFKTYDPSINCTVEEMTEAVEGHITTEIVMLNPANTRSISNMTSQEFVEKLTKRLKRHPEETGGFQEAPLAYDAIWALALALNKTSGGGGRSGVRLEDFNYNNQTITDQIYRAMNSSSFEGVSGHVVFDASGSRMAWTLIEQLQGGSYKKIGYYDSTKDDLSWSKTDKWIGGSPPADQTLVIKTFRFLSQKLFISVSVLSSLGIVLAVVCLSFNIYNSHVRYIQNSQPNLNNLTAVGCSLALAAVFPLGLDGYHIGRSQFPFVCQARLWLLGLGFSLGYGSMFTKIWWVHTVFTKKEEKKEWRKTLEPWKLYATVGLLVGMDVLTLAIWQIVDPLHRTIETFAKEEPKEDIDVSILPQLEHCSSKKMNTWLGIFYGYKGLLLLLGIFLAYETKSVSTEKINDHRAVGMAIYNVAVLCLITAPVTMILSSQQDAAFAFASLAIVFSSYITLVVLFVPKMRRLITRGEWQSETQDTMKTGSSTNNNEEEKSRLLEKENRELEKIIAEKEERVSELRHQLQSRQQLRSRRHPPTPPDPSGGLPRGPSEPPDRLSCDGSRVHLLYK
# Target sequence in this assay (O88871 41-940 partner): as the sequence (O88871 41-940 partner) above
# chicks = test: Memory consolidation in chicks, anthranilate-coated bead discrimination; type: in vivo, chick
# Procedure: This procedure trains each chick on anthranilate-coated red beads, which have a bitter taste. In the test, 120 min. after the initial exposure to the red bead each chick is presented with a blue and a red bead, and normally will avoid pecking at the red bead; the discrimination ratio measures how well it remembers to do this. Chicks trained on 100% anthranilate-coated beads produce a discrimination ratio better than 0.9, and drug-induced memory deficits can be detected in this group. However, chicks trained on 20% anthranilate-coated beads produce a discrimination ratio of around 0.6, and this group can be used to detect drug-induced memory enhancement. Drugs are delivered by two bilateral intracranial injections (10 μL each).
# GABAA [10] = test system: T1, GABAA; settings: Ragozzino et al (1996); cited from earlier work
# [11] = Murata et al, 1996, Ragozzino et al
structure (smiles),measurement,setting,value
"NCCCP(=O)(O)O [3-APA, 3-aminopropylphosphonic acid]",Kb,GABAC receptors,10 µM
"NC/C=C\C(=O)O [CACA, cis-4-aminocrotonic acid]",IC50,GABAA [1],25 µM
same,Activation of Cl− channel current by compound on its own,[2],activated the Cl^− channel
same,nH (Hill Coefficient),[2],2.2 ± 0.3
same,EC50,[2]; EC50 (effective dose that activates 50% of the maximal current),37.4 µM and 37 µM
same,Maximal dose current as % of the maximal GABA activated current,[2],75%
same,Kd,GABAC receptors,74 µM
"NCCC[PH](=O)O [CGP27492, 3-aminopropylphosphinic acid]",IC50,GABAA [3],1.7 µM
same,Activation of Cl− channel current by compound on its own,[2],did not activate any current on their own
same,Kb,[2],3.2 ± 1 µM
same,Slope of Schild Plot,[2],0.99
same,nH (Hill Coefficient),[2],1.9 ± 0.2
same,IC50,[2],2.47 ± 0.04 µM
same,Mode of antagonism,[2],competitive antagonists
same,nH of GABA curve in the presence of antagonist,[2]; [Antagonist] 10 μM,2.3 ± 0.1
same,nH of GABA curve in the presence of antagonist,[2]; [Antagonist] 30 μM,2.4 ± 0.3
same,nH of GABA curve in the presence of antagonist,[2]; [Antagonist] 100 μM,2.5 ± 0.2
same,Kb,GABAC receptors,1.8 µM
"CP(=O)(O)CCCN [CGP35024, (3-aminopropyl)methylphosphinic acid]","GABAA receptor affinity, IC50",GABAA [3],inactive at 10^k
same,Activation of Cl− channel current by compound on its own,[2],did not activate any current on their own
same,Kb,[2],0.58 ± 0.14 µM
same,Slope of Schild Plot,[2],1.14
same,nH (Hill Coefficient),[2],1.8 ± 0.1
same,IC50,[2],0.75 ± 0.07 µM
same,Mode of antagonism,[2],competitive antagonists
same,nH of GABA curve in the presence of antagonist,[2]; [Antagonist] 3 μM,2.3 ± 0.1
same,nH of GABA curve in the presence of antagonist,[2]; [Antagonist] 10 μM,2.2 ± 0.2
same,nH of GABA curve in the presence of antagonist,[2]; [Antagonist] 30 μM,1.9 ± 0.2
same,Kb,GABAC receptors,0.8 µM
"CCOC(OCC)P(=O)(O)CCCN [CGP35348, 3-aminopropyl(diethoxymethyl)phosphinic acid]",Effect as agonist or antagonist at GABAC receptors,[2],no effect as either agonists or antagonists
"CCCCP(=O)(O)CCCN [CGP36742, (3-aminopropyl)-n-butylphosphinic acid]",IC50,GABAA [4],500 µM
same,Effect at other receptor types,[5],no effect
"NC/C=C/[PH](=O)O [CGP38593, [(E)-3-aminopropen-1-yl]phosphinic acid]",IC50,GABAA [3],6.8 µM
same,Activation of Cl− channel current by compound on its own,[2],did not activate any current on their own
same,Kb,[2],15.5 ± 1.7 µM
same,Slope of Schild Plot,[2],0.95
same,nH (Hill Coefficient),[2],1.8 ± 0.4
same,Activation of the receptor by compound alone,[2]; 100 μM,do not activate the receptor
same,Effect on GABA response when co-applied with GABA (1 μM),[2]; 100 μM,the GABA response is blocked or reduced
same,IC50,[2],7.7 µM and 7.68 µM
same,Mode of antagonism,[2],competitive antagonists
same,nH of GABA curve in the presence of antagonist,[2]; [Antagonist] 30 μM,2.7 ± 0.1
same,nH of GABA curve in the presence of antagonist,[2]; [Antagonist] 60 μM,2.5 ± 0.4
same,nH of GABA curve in the presence of antagonist,[2]; [Antagonist] 100 μM,3.0 ± 0.1
"CP(=O)(O)/C=C/CN [CGP44530, [(E)-3-Aminopropen-1-yl]methylphosphinic acid]","GABAA receptor affinity, IC50",GABAA [3],inactive at 100
same,Activation of Cl− channel current by compound on its own,[2],did not activate any current on their own
same,Kb,[2],8.6 ± 1.6 µM
same,Slope of Schild Plot,[2],1.01
same,nH (Hill Coefficient),[2],2.4 ± 0.5
same,Activation of the receptor by compound alone,[2]; 100 μM,do not activate the receptor
same,Effect on GABA response when co-applied with GABA (1 μM),[2]; 100 μM,the GABA response is blocked or reduced
same,IC50,[2],5.5 µM and 5.53 µM
same,Mode of antagonism,[2],competitive antagonists
same,nH of GABA curve in the presence of antagonist,[2]; [Antagonist] 10 μM,2.6 ± 0.2
same,nH of GABA curve in the presence of antagonist,[2]; [Antagonist] 30 μM,3.0 ± 0.1
same,nH of GABA curve in the presence of antagonist,[2]; [Antagonist] 100 μM,3.7 ± 0.4
same,IC50,GABAB [6],0.65 µM
"NCCCP(=O)(O)CC1CCCCC1 [CGP46381, 3-aminopropyl(cyclohexylmethyl)phosphinic acid]",Effect as agonist or antagonist at GABAC receptors,[2],no effect as either agonists or antagonists
"NC[C@H](O)CP(=O)(O)CC1CCCCC1 [CGP51176, (2S)-3-amino-2-hydroxypropyl(cyclohexylmethyl)phosphinic acid]",Effect as agonist or antagonist at GABAC receptors,[2],no effect as either agonists or antagonists
C[C@H](NC[C@@H](O)CP(=O)(O)Cc1ccccc1)c1ccc(Cl)c(Cl)c1 [CGP55845A],Effect as agonist or antagonist at GABAC receptors,[2],no effect as either agonists or antagonists
"NC/C=C\[PH](=O)O [CGP70522, [(Z)-3-aminopropen-1-yl]phosphinic acid]",IC50,GABAA [3],6.6 µM
same,Activation of Cl− channel current by compound on its own,[2],did not activate any current on their own
same,Activation of the receptor by compound alone,[2]; 300 μM,do not activate the receptor
same,Effect on GABA response when co-applied with GABA (1 μM),[2]; 300 μM,the GABA response is blocked or reduced
same,IC50,[2],> 300 µM
same,Mode of antagonism,[2],competitive antagonists
"CP(=O)(O)/C=C\CN [CGP70523, [(Z)-3-aminopropen-1-yl]methylphosphinic acid]",IC50,GABAA [3],242 µM
same,Activation of Cl− channel current by compound on its own,[2],did not activate any current on their own
same,nH (Hill Coefficient),[2],1.6 ± 0.1
same,Activation of the receptor by compound alone,[2]; 100 μM,do not activate the receptor
same,Effect on GABA response when co-applied with GABA (1 μM),[2]; 100 μM,the GABA response is blocked or reduced
same,IC50,[2],38.9 µM and 38 µM
same,Mode of antagonism,[2],competitive antagonists
same,IC50,GABAB [6],16 µM
"NCCCC(=O)O [GABA, γ-Aminobutyric acid]",Activation of Cl− channel current by compound on its own,[2],activated the Cl^− channel
same,nH (Hill Coefficient),[2],2.6 ± 0.2
O=C(O)C1=CCNCC1 [Isoguvacine],EC50,"GABAC (human r1); data from Murata et al, 1996",99 µM
same,IC50,GABAA [1],1.4 µM
"CP(=O)(O)C1CCNCC1 [PMPA, piperidine-4-(methyl)phosphinic acid]",IC50,GABAA [7],> 100 µM
same,Kb,[2],6 ± 1.2 µM
same,IC50,[2],6 µM
same,IC50,GABAB [8],> 1000 µM
same,Kb,human rho-2 receptors,4.2 ± 0.2 µM
"NC/C=C/C(=O)O [TACA, trans-4-aminocrotonic acid]",IC50,GABAA [1],0.14 µM
same,Activation of Cl− channel current by compound on its own,[2],activated the Cl^− channel
same,nH (Hill Coefficient),[2],2.4 ± 0.2
same,Maximal dose current as % of the maximal GABA activated current,[2],95%
same,EC50,[2]; read-out: EC50 (effective dose that activates 50% of the maximal current),0.44 ± 0.02 µM
same,Kd,GABAC receptors,0.6 µM
CP(=O)(O)C1=CCNCC1 [TPMPA],Kd,"GABAC (human r1); Murata et al, 1996, Ragozzino et al, 1996, read-out: KD, GABAC receptor antagonist activity",2.1 µM
same,Selectivity as antagonist for GABAC receptors over GABAB receptors,GABAC (human r1); [11],more than 100 fold
same,Selectivity at GABAC receptors over GABAA receptors,GABAC (human r1); [11],500 fold
same,Kb,"GABAC (human r1); data from Murata et al, 1996",2.1 µM
same,IC50,GABAC (human r1); read-out: Concentration producing 50% inhibition of GABAC receptor activation,2.1 µM
same,Effect on latency,"male Swiss mice; 50 mg/Kg, repeat experiment, tested only after 14 days, Swiss mice from a different source",significantly reduced latency
same,Effect on latency,"male Swiss mice; 200 mg/Kg, first experiment, 14 day test",significantly reduces the latency
same,EC50,GABAB [9],~500 µM
same,Kb,[2],2 ± 0.4 µM
same,Effect on memory (discrimination ratio),"chicks; 30 μM, intracranial injection, chicks trained with 20% anthranilate",enhances memory
same,Time of injection after training giving optimum effect,chicks; in vivo,≤ 2.5 min
same,Kb,GABAA [10],320 µM
same,Potency at blocking rho-2 receptors relative to rho-1 GABAC receptors,human rho-2 receptors; human homo-oligomeric receptors,an order of magnitude less potent
same,Kb,human rho-2 receptors,15.6 ± 1.6 µM
